Assay results from ChEMBL document CHEMBL1201862, “PubChem BioAssay data set” (2004).
Calls of active or inactive are those of the source.

How the values were obtained:
Cytochrome P450 2D6 = Cytochrome P450 2D6 (Homo sapiens, UniProt P10635); experiment: qHTS Assay for Inhibitors and Substrates of Cytochrome P450 2D6. [Related pubchem assays: 410 ]; type: ADME; conditions: read-out: Potency
Chaperone protein dnaK = Chaperone protein dnaK (Escherichia coli, UniProt C3TRK2); experiment: DnaK beta-domain binding affinity, SAR follow-up, orthogonal assay for DnaK modulator project, biophysical, isothermal titration calorimetry, full-length DnaK (AID 1495)
[1] = target: T1, Alkaline phosphatase, tissue-nonspecific isozyme (Homo sapiens, UniProt P05186)
T1 sequence (P05186 whole entry): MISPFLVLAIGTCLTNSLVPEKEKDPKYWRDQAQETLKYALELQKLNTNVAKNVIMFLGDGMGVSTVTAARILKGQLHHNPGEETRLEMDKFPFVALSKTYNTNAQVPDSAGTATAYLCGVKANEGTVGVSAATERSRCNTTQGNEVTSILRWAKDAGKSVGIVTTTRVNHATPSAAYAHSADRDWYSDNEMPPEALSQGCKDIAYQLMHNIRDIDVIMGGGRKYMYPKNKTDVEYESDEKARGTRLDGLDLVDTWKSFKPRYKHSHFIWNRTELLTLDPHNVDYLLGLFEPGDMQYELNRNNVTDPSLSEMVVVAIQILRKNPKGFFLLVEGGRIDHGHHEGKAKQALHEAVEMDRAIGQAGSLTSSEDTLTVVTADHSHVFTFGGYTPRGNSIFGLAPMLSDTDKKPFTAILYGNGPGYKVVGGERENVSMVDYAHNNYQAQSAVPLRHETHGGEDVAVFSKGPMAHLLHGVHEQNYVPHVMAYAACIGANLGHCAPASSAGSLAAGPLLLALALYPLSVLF

[2] = cytotoxicity in HPDE-C7 cells, cell-based, fluorescence, HTS (AID 430); type: functional; conditions: Homo sapiens
[3] = cytotoxicity in KRAS-transformed pancreatic duct cells, primary screen, cell-based, fluorescence, HTS (AID 431); type: functional; conditions: Homo sapiens;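 further: cell line used: HPDE-C7K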
[4] = Luminescence Cell-Based Dose Retest to Confirm Inhibitors of Cancer Stem Cells. [Related pubchem assays (depositor defined):AID2717, AID2721]; type: functional; conditions: Homo sapiens
[5] = target: T2, Methionyl-tRNA synthetase, putative (Trypanosoma brucei brucei, UniProt Q38C91); type: functional, Trypanosoma brucei brucei strain 927/4 GUTat10.1
T2 sequence (Q38C91 whole entry): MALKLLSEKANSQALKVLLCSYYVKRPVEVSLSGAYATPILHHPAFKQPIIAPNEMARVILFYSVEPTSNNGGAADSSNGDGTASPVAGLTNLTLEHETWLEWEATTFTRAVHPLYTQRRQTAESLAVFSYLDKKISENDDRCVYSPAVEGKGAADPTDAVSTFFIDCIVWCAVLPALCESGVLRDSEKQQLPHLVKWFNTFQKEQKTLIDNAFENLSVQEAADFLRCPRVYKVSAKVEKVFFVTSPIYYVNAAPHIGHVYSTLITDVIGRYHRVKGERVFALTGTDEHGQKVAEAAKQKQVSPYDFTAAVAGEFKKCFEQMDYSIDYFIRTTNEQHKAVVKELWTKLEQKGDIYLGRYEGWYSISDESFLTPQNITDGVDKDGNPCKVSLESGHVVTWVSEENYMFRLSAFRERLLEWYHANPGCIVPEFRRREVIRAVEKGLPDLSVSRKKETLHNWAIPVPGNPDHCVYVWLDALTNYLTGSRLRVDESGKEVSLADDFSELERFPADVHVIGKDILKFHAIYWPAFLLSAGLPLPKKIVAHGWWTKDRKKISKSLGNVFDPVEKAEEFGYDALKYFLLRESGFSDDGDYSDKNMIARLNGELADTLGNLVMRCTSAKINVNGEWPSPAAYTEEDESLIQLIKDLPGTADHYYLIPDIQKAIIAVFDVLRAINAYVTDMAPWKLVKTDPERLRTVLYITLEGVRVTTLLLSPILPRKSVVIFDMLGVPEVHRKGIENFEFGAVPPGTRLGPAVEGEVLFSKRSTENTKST

[6] = Counterscreen for inhibitors of Trypanosoma brucei methionyl tRNA synthetase (MetRS): Luminescence-based cell-based high throughput dose response assay to identify compounds that are cytotoxic to Jurkat human T lymphocyte cells.; type: functional; conditions: jurkat
[7] = target: T2, Methionyl-tRNA synthetase, putative; type: functional, Trypanosoma brucei brucei strain 927/4 GUTat10.1; remark: listed apart in the source
[8] = target: Eukaryotic translation initiation factor 4H (Homo sapiens, UniProt Q15056); experiment: human eIF4H binding inhibitors, primary screen, translation initiation inhibitor project, biochemical, uHTS, fluorescence polarization (AID 2012)
[9] = target: T3, Mannose-6-phosphate isomerase (Homo sapiens, UniProt P34949); experiment: human PMI inhibitors, high substrate, primary screen, biochemical, fluorescence intensity, high mannose 6-phosphate (AID 1220)
T3 sequence (P34949 whole entry): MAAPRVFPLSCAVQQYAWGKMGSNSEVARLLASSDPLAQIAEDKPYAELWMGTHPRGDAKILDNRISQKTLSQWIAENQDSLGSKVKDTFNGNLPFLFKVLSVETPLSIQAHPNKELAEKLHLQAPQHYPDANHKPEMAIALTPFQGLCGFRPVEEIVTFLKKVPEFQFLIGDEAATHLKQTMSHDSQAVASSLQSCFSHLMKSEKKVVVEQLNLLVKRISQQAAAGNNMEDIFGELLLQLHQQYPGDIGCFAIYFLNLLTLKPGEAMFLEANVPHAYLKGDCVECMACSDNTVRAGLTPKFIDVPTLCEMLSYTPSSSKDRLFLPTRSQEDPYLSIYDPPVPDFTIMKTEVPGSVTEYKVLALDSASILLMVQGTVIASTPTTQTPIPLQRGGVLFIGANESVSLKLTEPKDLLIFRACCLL

[10] = target: Polyadenylate-binding protein 1 (Homo sapiens, UniProt P11940); experiment: PABP poly(A) RNA binding inhibitors, primary screen, biochemical, fluorescence polarization, uHTS (AID 2014)
Chain of Polyadenylate-binding protein 1 (P11940 whole entry): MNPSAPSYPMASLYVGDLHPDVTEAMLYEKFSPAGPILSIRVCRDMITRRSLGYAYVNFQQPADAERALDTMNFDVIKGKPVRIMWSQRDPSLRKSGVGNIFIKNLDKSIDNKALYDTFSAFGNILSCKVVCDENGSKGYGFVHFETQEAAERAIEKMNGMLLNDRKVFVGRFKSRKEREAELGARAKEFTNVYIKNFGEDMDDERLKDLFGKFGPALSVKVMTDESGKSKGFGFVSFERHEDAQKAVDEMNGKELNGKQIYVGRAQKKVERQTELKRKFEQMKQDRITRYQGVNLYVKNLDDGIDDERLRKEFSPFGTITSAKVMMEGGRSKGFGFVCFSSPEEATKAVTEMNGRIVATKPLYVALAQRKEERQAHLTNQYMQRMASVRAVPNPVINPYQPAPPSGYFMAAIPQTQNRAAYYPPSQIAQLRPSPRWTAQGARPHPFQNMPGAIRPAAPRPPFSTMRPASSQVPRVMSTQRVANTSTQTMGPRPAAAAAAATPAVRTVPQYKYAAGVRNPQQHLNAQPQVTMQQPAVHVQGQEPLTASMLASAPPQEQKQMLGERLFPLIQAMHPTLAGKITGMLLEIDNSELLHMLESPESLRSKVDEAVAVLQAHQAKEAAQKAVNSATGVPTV

Chain of Cytochrome P450 2D6 (P10635 whole entry): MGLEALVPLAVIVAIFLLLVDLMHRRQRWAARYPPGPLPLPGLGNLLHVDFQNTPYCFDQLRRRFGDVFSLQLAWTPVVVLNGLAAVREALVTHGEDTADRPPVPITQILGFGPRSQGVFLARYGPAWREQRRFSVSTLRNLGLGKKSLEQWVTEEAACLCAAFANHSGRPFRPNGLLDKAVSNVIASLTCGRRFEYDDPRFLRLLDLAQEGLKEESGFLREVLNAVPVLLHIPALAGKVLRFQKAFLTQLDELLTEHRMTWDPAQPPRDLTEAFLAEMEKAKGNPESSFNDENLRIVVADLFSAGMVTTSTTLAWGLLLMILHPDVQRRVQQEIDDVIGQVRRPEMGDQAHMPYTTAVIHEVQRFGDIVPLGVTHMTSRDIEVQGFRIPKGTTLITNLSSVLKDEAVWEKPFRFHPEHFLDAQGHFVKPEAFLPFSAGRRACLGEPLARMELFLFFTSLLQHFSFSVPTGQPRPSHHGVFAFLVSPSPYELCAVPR
Chain of Chaperone protein dnaK (C3TRK2 whole entry): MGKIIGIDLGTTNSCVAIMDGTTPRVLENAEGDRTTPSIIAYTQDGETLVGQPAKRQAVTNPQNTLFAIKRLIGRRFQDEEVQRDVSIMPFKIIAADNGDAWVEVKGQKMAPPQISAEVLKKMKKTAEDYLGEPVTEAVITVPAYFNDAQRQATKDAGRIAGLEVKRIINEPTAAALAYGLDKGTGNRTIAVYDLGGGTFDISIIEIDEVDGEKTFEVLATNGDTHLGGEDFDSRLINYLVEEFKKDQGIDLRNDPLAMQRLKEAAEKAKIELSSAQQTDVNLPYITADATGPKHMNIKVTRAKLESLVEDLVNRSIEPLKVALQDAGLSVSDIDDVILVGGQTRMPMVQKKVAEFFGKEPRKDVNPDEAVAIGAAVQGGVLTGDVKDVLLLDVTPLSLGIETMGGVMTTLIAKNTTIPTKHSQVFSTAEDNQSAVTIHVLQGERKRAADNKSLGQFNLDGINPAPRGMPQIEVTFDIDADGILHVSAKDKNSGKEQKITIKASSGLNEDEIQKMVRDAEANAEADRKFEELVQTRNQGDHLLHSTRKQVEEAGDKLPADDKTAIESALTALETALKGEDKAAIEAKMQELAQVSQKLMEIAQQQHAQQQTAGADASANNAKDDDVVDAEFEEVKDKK

SMILES: COc1cc(C(=O)O[C@@H]2CC(C)=CC[C@@]3(C)CC[C@](O)(C(C)C)[C@H]23)ccc1O
- AC50 (Cytochrome P450 2D6): 31.6 µM (inconclusive)

SMILES: O=C(NCc1c(Cl)cccc1Cl)c1cccs1
- Kd (Chaperone protein dnaK): 1.5 µM (active)

SMILES: Clc1ccc(COC(Cn2ccnc2)c2ccc(Cl)cc2Cl)c(Cl)c1 (configuration not stated) [MICONAZOLE NITRATE]
- EC50 [1]: 70.6 µM (not active)
- EC50 [2]: 8.19 µM (active)
- EC50 [3]: 7.45 µM (active)
- AC50 [4]: 6.36 µM (active)
- IC50 [5]: 11 µM (inactive)
- IC50 [6]: 28.1 µM (inactive)
- IC50 [7]: 13.2 µM (inactive)

SMILES: COc1ccc(C(=O)C[N+]2(C)CCOCC2)cc1
- IC50 [8]: > 100 µM (inactive)
- IC50 [9]: > 50 µM (not active)
- IC50 [10]: 4.41 µM (active)
